Blank lines part the entries; values can stand above or below the molecule they belong to.
Columns and labels:
Assay in all cases: radiometric filter-binding kinase assay
RPS6KA5 KD1 KD2 (human) = RPS6KA5 KD1 KD2 (human) (UniProt O75582)
CSNK1D (human) = CSNK1D (human) (UniProt P48730)
[1] = target: STK11 CAB39 STRADA (human) (UniProt Q9Y376+Q7RTN6+Q15831)
MARK3 (human) = MARK3 (human) (UniProt P27448)
PRKCA (human) = PRKCA (human) (UniProt P17252)
MAP3K9 (human) = MAP3K9 (human) (UniProt P80192)
AURKA (human) = AURKA (human) (UniProt O14965)
MARK4 (human) = MARK4 (human) (UniProt Q96L34)
MAPK15 (human) = MAPK15 (human) (UniProt Q8TD08)
MAPK14 (human) = MAPK14 (human) (UniProt Q16539)
Sequence of MAPK14 (human) (Q16539 whole entry, looked up): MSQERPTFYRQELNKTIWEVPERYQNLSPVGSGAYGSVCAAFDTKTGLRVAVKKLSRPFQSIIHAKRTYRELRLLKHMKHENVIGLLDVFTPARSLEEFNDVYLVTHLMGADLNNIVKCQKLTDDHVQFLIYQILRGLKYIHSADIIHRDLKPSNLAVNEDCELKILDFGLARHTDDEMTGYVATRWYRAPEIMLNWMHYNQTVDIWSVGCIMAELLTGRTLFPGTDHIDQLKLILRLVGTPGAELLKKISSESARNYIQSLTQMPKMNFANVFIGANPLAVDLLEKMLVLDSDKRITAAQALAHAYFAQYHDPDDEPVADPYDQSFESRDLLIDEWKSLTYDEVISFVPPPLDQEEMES

RIPK2 (human) = RIPK2 (human) (UniProt O43353)
[2] = tested on: AKT2 (human), P31751 [S474D]
Sequence of AKT2 (human), P31751 [S474D] (P31751 whole entry S474D, looked up): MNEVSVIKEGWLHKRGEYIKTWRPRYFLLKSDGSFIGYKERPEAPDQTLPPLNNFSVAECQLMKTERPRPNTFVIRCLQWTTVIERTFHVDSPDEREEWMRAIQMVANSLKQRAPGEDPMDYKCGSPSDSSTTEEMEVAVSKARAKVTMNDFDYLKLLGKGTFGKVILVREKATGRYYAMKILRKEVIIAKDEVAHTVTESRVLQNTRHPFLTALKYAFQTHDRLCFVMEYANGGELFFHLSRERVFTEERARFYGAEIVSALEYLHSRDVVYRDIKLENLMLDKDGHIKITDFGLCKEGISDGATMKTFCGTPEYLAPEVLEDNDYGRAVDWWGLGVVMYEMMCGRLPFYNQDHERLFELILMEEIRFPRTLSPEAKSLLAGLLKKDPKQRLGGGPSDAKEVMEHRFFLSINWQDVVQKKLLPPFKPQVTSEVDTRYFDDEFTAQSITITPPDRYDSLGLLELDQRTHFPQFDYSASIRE

IRAK4 (human) = IRAK4 (human) (UniProt Q9NWZ3)
Sequence of IRAK4 (human) (Q9NWZ3 whole entry, looked up): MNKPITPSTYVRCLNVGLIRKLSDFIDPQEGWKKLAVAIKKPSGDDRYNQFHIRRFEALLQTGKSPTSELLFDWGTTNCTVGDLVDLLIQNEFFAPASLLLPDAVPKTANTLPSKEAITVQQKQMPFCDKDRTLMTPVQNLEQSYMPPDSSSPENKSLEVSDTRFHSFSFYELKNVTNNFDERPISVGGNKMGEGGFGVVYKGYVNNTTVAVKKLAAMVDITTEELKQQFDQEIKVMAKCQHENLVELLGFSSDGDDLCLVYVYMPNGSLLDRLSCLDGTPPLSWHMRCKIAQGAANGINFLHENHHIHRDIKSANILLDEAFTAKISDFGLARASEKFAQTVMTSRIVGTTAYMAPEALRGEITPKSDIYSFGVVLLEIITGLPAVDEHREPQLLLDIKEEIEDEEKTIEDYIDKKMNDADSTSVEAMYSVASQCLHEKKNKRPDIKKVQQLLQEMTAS

NEK2 (human) = NEK2 (human) (UniProt P51955)
Sequence of NEK2 (human) (P51955 whole entry, looked up): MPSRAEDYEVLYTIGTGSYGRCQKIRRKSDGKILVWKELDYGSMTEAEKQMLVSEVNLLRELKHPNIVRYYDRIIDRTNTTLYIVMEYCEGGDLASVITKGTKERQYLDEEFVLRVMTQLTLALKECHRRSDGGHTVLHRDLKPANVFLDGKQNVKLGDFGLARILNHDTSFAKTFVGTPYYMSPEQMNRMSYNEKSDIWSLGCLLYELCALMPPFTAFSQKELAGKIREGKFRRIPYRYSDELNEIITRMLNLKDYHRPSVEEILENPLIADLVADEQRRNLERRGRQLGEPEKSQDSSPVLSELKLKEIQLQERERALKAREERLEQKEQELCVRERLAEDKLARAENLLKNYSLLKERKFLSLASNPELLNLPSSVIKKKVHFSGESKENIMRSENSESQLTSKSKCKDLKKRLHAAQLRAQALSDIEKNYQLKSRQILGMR

MAPK11 (human) = MAPK11 (human) (UniProt Q15759)
Sequence of MAPK11 (human) (Q15759 whole entry, looked up): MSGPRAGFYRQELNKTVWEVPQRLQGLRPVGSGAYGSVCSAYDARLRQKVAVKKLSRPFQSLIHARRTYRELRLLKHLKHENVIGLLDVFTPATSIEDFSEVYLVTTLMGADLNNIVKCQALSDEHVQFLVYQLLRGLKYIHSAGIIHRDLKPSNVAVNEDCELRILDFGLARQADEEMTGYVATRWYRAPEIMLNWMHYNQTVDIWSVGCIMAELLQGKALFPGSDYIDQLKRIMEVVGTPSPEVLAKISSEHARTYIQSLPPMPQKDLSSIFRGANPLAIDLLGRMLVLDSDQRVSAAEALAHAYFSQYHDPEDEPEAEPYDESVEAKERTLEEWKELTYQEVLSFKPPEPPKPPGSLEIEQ

MKNK2 (human) = MKNK2 (human) (UniProt Q9HBH9)
NEK6 (human) = NEK6 (human) (UniProt Q9HC98)
Sequence of NEK6 (human) (Q9HC98 whole entry, looked up): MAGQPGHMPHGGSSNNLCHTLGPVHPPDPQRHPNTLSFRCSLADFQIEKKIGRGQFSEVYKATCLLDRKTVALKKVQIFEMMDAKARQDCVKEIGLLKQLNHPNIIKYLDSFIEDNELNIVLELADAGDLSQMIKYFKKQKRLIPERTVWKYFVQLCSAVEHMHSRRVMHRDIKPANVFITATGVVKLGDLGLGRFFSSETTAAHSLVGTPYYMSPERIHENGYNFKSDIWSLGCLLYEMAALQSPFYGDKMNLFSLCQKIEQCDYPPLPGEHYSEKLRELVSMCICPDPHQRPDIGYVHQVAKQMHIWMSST

FLT1 (human) = FLT1 (human) (UniProt P17948)
INSRR (human) = INSRR (human) (UniProt P14616)
JAK2 JH1 JH2 (human) = JAK2 JH1 JH2 (human) (UniProt O60674)
HIPK1 (human) = HIPK1 (human) (UniProt Q86Z02)
[3] = tested on: RPS6KB1 (human), P23443 [T412E]
SRPK1 (human) = SRPK1 (human) (UniProt Q96SB4)
CLK2 (human) = CLK2 (human) (UniProt P49760)
Sequence of CLK2 (human) (P49760 whole entry, looked up): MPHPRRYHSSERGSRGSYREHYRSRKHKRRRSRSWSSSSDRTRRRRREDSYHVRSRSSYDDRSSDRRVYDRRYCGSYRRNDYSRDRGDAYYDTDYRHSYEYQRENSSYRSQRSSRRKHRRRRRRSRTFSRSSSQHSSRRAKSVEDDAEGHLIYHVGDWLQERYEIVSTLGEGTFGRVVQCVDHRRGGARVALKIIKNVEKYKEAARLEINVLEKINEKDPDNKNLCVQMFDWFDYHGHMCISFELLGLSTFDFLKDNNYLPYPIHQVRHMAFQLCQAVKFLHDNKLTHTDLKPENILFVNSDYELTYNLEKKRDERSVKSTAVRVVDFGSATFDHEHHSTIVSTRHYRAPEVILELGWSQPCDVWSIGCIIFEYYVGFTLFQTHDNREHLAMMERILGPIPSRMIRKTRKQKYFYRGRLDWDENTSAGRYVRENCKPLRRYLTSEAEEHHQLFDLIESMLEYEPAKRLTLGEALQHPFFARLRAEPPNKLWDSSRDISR

MAPKAPK3 (human) = MAPKAPK3 (human) (UniProt Q16644)
HIPK2 (human) = HIPK2 (human) (UniProt Q9H2X6)
MAP3K1 (human) = MAP3K1 (human) (UniProt Q13233)
YES1 (human) = YES1 (human) (UniProt P07947)
CSNK2A1 (human) = CSNK2A1 (human) (UniProt P68400)
BTK (human) = BTK (human) (UniProt Q06187)
Sequence of BTK (human) (Q06187 whole entry, looked up): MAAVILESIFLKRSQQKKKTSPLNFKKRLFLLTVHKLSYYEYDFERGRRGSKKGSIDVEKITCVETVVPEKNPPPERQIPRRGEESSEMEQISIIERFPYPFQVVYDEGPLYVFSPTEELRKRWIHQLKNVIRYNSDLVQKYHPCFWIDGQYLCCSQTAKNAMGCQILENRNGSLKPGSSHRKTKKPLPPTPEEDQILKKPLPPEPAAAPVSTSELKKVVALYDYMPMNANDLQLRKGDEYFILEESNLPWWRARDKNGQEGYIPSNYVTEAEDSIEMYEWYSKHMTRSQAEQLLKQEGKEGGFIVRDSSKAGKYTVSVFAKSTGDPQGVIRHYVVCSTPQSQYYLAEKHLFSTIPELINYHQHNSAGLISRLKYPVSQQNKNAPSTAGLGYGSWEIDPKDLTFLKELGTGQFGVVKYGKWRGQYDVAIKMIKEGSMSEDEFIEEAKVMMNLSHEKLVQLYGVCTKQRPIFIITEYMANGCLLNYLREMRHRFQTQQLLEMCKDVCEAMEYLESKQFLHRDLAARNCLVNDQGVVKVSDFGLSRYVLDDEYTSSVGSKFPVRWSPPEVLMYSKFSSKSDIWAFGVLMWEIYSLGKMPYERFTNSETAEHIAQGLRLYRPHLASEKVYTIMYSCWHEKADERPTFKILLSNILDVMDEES

NTRK1 (human) = NTRK1 (human) (UniProt P04629)
RPS6KA1 KD1 KD2 (human) = RPS6KA1 KD1 KD2 (human) (UniProt Q15418)
MAPK1 (human) = MAPK1 (human) (UniProt P28482)
INSR (human) = INSR (human) (UniProt P06213)
DYRK2 (human) = DYRK2 (human) (UniProt Q92630)
Sequence of DYRK2 (human) (Q92630 whole entry, looked up): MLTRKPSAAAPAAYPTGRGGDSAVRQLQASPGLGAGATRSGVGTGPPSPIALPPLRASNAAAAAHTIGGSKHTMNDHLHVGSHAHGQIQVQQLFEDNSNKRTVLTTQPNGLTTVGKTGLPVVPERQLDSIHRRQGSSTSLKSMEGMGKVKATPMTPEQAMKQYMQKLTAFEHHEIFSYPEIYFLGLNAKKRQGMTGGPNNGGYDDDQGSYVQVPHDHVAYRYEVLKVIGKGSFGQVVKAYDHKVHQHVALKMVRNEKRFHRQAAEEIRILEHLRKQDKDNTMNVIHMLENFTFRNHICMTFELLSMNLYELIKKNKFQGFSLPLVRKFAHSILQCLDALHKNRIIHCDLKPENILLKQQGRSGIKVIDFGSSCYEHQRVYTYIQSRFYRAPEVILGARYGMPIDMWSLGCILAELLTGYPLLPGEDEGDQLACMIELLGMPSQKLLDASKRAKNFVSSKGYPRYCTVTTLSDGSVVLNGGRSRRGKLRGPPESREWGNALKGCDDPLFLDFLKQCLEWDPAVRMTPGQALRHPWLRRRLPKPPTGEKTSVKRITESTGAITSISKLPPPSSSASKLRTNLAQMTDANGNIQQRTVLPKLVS

Sequence of MARK3 (human) (P27448 whole entry, looked up): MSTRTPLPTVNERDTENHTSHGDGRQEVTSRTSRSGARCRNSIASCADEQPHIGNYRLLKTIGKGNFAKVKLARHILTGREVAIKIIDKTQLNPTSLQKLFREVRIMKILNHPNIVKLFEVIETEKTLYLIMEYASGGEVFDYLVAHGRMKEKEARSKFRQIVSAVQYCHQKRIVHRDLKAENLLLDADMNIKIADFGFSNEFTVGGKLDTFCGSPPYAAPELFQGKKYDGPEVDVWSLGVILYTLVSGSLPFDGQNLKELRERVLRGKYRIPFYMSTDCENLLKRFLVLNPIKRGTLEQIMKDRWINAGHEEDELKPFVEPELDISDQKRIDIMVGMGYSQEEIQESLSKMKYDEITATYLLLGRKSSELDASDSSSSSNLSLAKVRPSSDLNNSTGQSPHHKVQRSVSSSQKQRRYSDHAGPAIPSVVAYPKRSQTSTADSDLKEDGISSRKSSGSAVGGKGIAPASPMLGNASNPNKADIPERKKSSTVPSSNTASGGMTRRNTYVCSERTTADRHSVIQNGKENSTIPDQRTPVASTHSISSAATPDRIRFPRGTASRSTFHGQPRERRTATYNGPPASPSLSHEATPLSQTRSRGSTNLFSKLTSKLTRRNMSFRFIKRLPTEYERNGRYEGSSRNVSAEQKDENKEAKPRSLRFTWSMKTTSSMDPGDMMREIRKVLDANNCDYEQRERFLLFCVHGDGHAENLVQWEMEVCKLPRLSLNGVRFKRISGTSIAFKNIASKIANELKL

residual activity (RPS6KA5 KD1 KD2 (human); compound 1.0 µM): 94% | residual activity (RPS6KA5 KD1 KD2 (human); compound 10.0 µM): 86% | residual activity (RPS6KA5 KD1 KD2 (human); compound 50.0 µM): 91% | residual activity (CSNK1D (human); compound 1.0 µM): 108% | residual activity (CSNK1D (human); compound 10.0 µM): 107% | residual activity (CSNK1D (human); compound 50.0 µM): 90% | residual activity ([1]; compound 10.0 µM): 84% | residual activity ([1]; compound 50.0 µM): 85% | residual activity (MARK3 (human); compound 1.0 µM): 100% | residual activity (MARK3 (human); compound 10.0 µM): 108% | residual activity (PRKCA (human); compound 1.0 µM): 88% | residual activity (PRKCA (human); compound 10.0 µM): 91% | residual activity (PRKCA (human); compound 50.0 µM): 95% | residual activity (MAP3K9 (human); compound 10.0 µM): 94% | residual activity (MAP3K9 (human); compound 50.0 µM): 102% | residual activity (AURKA (human); compound 10.0 µM): 107% | residual activity (AURKA (human); compound 50.0 µM): 111% | residual activity (MARK4 (human); compound 10.0 µM): 106% | residual activity (MARK4 (human); compound 50.0 µM): 106% | residual activity (MAPK14 (human); compound 1.0 µM): 82% | residual activity (MAPK14 (human); compound 10.0 µM): 107% | residual activity (RIPK2 (human); compound 10.0 µM): 104% | residual activity (RIPK2 (human); compound 50.0 µM): 90% | residual activity ([2]; compound 10.0 µM): 86% | residual activity ([2]; compound 50.0 µM): 80% | residual activity (IRAK4 (human); compound 10.0 µM): 94% | residual activity (IRAK4 (human); compound 50.0 µM): 99% | residual activity (NEK2 (human); compound 1.0 µM): 79% | residual activity (NEK2 (human); compound 10.0 µM): 93% | residual activity (NEK2 (human); compound 50.0 µM): 91% | residual activity (MAPK11 (human); compound 1.0 µM): 82% | residual activity (MAPK11 (human); compound 10.0 µM): 91% | residual activity (MAPK11 (human); compound 50.0 µM): 106% | residual activity (MKNK2 (human); compound 1.0 µM): 90% | residual activity (MKNK2 (human); compound 10.0 µM): 106% | residual activity (MKNK2 (human); compound 50.0 µM): 126% | residual activity (NEK6 (human); compound 1.0 µM): 99% | residual activity (NEK6 (human); compound 10.0 µM): 100% | residual activity (NEK6 (human); compound 50.0 µM): 102% | residual activity (FLT1 (human); compound 10.0 µM): 84% | residual activity (FLT1 (human); compound 50.0 µM): 89% | residual activity (INSRR (human); compound 10.0 µM): 101% | residual activity (INSRR (human); compound 50.0 µM): 101% | residual activity (JAK2 JH1 JH2 (human); compound 10.0 µM): 80% | residual activity (JAK2 JH1 JH2 (human); compound 50.0 µM): 86% | residual activity (HIPK1 (human); compound 10.0 µM): 84% | residual activity (HIPK1 (human); compound 50.0 µM): 94% | residual activity ([3]; compound 1.0 µM): 81% | residual activity ([3]; compound 10.0 µM): 84% | residual activity ([3]; compound 50.0 µM): 91% | residual activity (SRPK1 (human); compound 1.0 µM): 94% | residual activity (SRPK1 (human); compound 10.0 µM): 107% | residual activity (SRPK1 (human); compound 50.0 µM): 108% | residual activity (CLK2 (human); compound 10.0 µM): 90% | residual activity (CLK2 (human); compound 50.0 µM): 86% | residual activity (MAPKAPK3 (human); compound 1.0 µM): 90% | residual activity (MAPKAPK3 (human); compound 10.0 µM): 93% | residual activity (MAPKAPK3 (human); compound 50.0 µM): 97% | residual activity (HIPK2 (human); compound 10.0 µM): 86% | residual activity (HIPK2 (human); compound 50.0 µM): 92% | residual activity (MAP3K1 (human); compound 10.0 µM): 107% | residual activity (MAP3K1 (human); compound 50.0 µM): 96% | residual activity (YES1 (human); compound 10.0 µM): 91% | residual activity (YES1 (human); compound 50.0 µM): 102% | residual activity (CSNK2A1 (human); compound 10.0 µM): 86% | residual activity (CSNK2A1 (human); compound 50.0 µM): 86% | residual activity (BTK (human); compound 10.0 µM): 104% | residual activity (BTK (human); compound 50.0 µM): 94% | residual activity (NTRK1 (human); compound 10.0 µM): 91% | residual activity (NTRK1 (human); compound 50.0 µM): 89% | residual activity (RPS6KA1 KD1 KD2 (human); compound 1.0 µM): 99% | residual activity (RPS6KA1 KD1 KD2 (human); compound 10.0 µM): 100% | residual activity (RPS6KA1 KD1 KD2 (human); compound 50.0 µM): 96% | residual activity (MAPK1 (human); compound 1.0 µM): 98% | residual activity (MAPK1 (human); compound 10.0 µM): 77% | residual activity (MAPK1 (human); compound 50.0 µM): 80% | residual activity (INSR (human); compound 10.0 µM): 66% | residual activity (INSR (human); compound 50.0 µM): 77% | residual activity (DYRK2 (human); compound 10.0 µM): 102% | residual activity (DYRK2 (human); compound 50.0 µM): 101%
Compound: CCCC(CCC)C(=O)O
residual activity (MAPK15 (human); compound 1.0 µM): 90% | residual activity (MAPK15 (human); compound 10.0 µM): 86% | residual activity (MAPK15 (human); compound 50.0 µM): 94%

residual activity (RPS6KA5 KD1 KD2 (human); compound 1.0 µM): 88% | residual activity (RPS6KA5 KD1 KD2 (human); compound 10.0 µM): 38% | residual activity (CSNK1D (human); compound 1.0 µM): 90% | residual activity (CSNK1D (human); compound 10.0 µM): 29% | residual activity ([1]; compound 1.0 µM): 95% | residual activity ([1]; compound 10.0 µM): 55% | residual activity (MARK3 (human); compound 1.0 µM): 51% | residual activity (MARK3 (human); compound 10.0 µM): 6% | residual activity (PRKCA (human); compound 1.0 µM): 99% | residual activity (PRKCA (human); compound 10.0 µM): 80% | residual activity (MAP3K9 (human); compound 1.0 µM): 100% | residual activity (MAP3K9 (human); compound 10.0 µM): 24% | residual activity (AURKA (human); compound 1.0 µM): 95% | residual activity (AURKA (human); compound 10.0 µM): 28% | residual activity (MARK4 (human); compound 1.0 µM): 34% | residual activity (MARK4 (human); compound 10.0 µM): 20% | residual activity (MAPK14 (human); compound 1.0 µM): 100% | residual activity (MAPK14 (human); compound 10.0 µM): 119% | residual activity (RIPK2 (human); compound 1.0 µM): 83% | residual activity (RIPK2 (human); compound 10.0 µM): 7% | residual activity ([2]; compound 1.0 µM): 21% | residual activity ([2]; compound 10.0 µM): 1% | residual activity (IRAK4 (human); compound 1.0 µM): 80% | residual activity (IRAK4 (human); compound 10.0 µM): 46% | residual activity (NEK2 (human); compound 1.0 µM): 86% | residual activity (NEK2 (human); compound 10.0 µM): 13% | residual activity (MAPK11 (human); compound 1.0 µM): 101% | residual activity (MAPK11 (human); compound 10.0 µM): 90% | residual activity (MKNK2 (human); compound 1.0 µM): 63% | residual activity (MKNK2 (human); compound 10.0 µM): 26% | residual activity (NEK6 (human); compound 1.0 µM): 99% | residual activity (NEK6 (human); compound 10.0 µM): 21% | residual activity (FLT1 (human); compound 1.0 µM): 27% | residual activity (FLT1 (human); compound 10.0 µM): 7% | residual activity (INSRR (human); compound 1.0 µM): 76% | residual activity (INSRR (human); compound 10.0 µM): 21% | residual activity (JAK2 JH1 JH2 (human); compound 1.0 µM): 91% | residual activity (JAK2 JH1 JH2 (human); compound 10.0 µM): 13% | residual activity (HIPK1 (human); compound 1.0 µM): 93% | residual activity (HIPK1 (human); compound 10.0 µM): 11% | residual activity ([3]; compound 1.0 µM): 104% | residual activity ([3]; compound 10.0 µM): 14% | residual activity (SRPK1 (human); compound 1.0 µM): 55% | residual activity (SRPK1 (human); compound 10.0 µM): 3% | residual activity (CLK2 (human); compound 1.0 µM): 58% | residual activity (MAPKAPK3 (human); compound 1.0 µM): 92% | residual activity (MAPKAPK3 (human); compound 10.0 µM): 14% | residual activity (HIPK2 (human); compound 1.0 µM): 62% | residual activity (HIPK2 (human); compound 10.0 µM): 19% | residual activity (MAP3K1 (human); compound 1.0 µM): 67% | residual activity (MAP3K1 (human); compound 10.0 µM): 74% | residual activity (YES1 (human); compound 1.0 µM): 42% | residual activity (YES1 (human); compound 10.0 µM): 9% | residual activity (CSNK2A1 (human); compound 1.0 µM): 46% | residual activity (CSNK2A1 (human); compound 10.0 µM): 7% | residual activity (BTK (human); compound 1.0 µM): 61% | residual activity (BTK (human); compound 10.0 µM): 32% | residual activity (NTRK1 (human); compound 1.0 µM): 92% | residual activity (NTRK1 (human); compound 10.0 µM): 29% | residual activity (RPS6KA1 KD1 KD2 (human); compound 1.0 µM): 51% | residual activity (RPS6KA1 KD1 KD2 (human); compound 10.0 µM): 15% | residual activity (MAPK1 (human); compound 1.0 µM): 107% | residual activity (MAPK1 (human); compound 10.0 µM): 105% | residual activity (INSR (human); compound 1.0 µM): 86% | residual activity (INSR (human); compound 10.0 µM): 62% | residual activity (DYRK2 (human); compound 1.0 µM): 45% | residual activity (DYRK2 (human); compound 10.0 µM): 1%
Compound: O=c1c(O)c(-c2ccc(O)c(O)c2)oc2cc(O)c(O)c(O)c12
residual activity (MAPK15 (human); compound 1.0 µM): 89% | residual activity (MAPK15 (human); compound 10.0 µM): 65%

Reference: the kinase profiling compilation of Christmann-Franck et al. (2016)
